Where two headings read alike, the source gives them in different places.
What was measured:
[1] = target: T1, TGFβR1 (Homo sapiens, UniProt P36897); assay: In vitro enzymatic activity inhibition test (TGFβR1), ADP-Glo Kinase Detection Kit; format: biochemical; settings: calculated from percent inhibition at 1000 nM, 100 nM, 10 nM
T1 sequence (P36897 34-503): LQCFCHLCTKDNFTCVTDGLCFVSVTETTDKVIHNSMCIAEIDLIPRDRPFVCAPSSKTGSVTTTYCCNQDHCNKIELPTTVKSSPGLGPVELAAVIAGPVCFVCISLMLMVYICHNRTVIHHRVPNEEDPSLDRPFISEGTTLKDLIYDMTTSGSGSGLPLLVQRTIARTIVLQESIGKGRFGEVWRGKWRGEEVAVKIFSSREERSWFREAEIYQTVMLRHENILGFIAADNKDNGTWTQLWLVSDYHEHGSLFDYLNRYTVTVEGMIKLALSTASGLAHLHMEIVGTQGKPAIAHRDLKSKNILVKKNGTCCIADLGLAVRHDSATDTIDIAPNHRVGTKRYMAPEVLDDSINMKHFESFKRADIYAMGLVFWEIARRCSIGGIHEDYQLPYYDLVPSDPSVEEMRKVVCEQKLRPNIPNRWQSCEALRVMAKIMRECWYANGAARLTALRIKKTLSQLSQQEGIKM
Experimental: Test Example 1: In vitro enzymatic activity inhibition test (TGFβR1).
Experimental method: According to the instructions of ADP-Glo™ Kinase Detection Kit (Promega), the inhibitory effect of the compounds of the present invention on the enzymatic activity of TGFβR1 was determined, and the steps were as follows: TGFβR1 enzyme were pre-incubated with different concentrations of test compounds (1000 nM, 100 nM, 10 nM) at 30°C for 30 min, TGFβR1 peptide and adenosine triphosphate (ATP) were added to initiate the reaction. The incubation was performed at 30°C for 3 h, followed by an addition of ADP-Glo™ reagent and incubated at room temperature for 90 min, kinase detection reagent was then added. Chemiluminescence signal values were detected after incubation at room temperature for another 30 min.
When the percent inhibition rate was between 30% and 80%, the median inhibitory concentration (IC50) or range of the compound was calculated according to the following formula: IC50 = X × (1 - percent inhibition rate (%)) / percent inhibition rate (%), wherein X is the concentration of the compound at which the inhibition rate is between 30% and 80%.

[2] = tested on: TGFβ/Smads signaling pathway in HEK293-SBE cells; assay: In vitro cell activity inhibition test, Bright-Glo luciferase reporter in HEK293-SBE cells; format: cell-based; settings: TGFβ 0.5 ng/ml, luciferase reporter gene method
Experimental: Test Example 3: In vitro cell activity inhibition test
Experimental method: According to the instructions of Bright-Glo™ luciferase detection kit (Promega), the inhibitory effect of the compounds of the present invention on TGFβ/Smads signaling pathway in HEK293-SBE cells was determined. The steps were as follows: HEK293-SBE cells (Bps bioscience) were added to a 96-well plate (10% FBS medium), 30,000/well, and cultured overnight at 37°C and 5% CO2. The medium was changed to 0.5% FBS medium, and the test compound diluted in 0.5% FBS medium was added. The highest final concentration of the test compound was 10 µM with 4-fold dilution, and a total of 8 concentration gradients. After 4-5 hours of incubation, 10 µl of TGFβ was added. The final concentration of TGFβ was 0.5 ng/ml. 10 µl of medium added in replace of TGFβ was the negative control. In the blank control, no test compound was added, and TGFβ was added. Bright Glo reagent was added to each well, and the chemiluminescence signal value was read on a microplate reader.
The percent inhibition rates of the test compound at different concentrations were plotted against the compound concentrations, the curve was fitted according to the four-parameter model, and the IC50 value was calculated by the following formula: y = Min + (Max - Min) / (1 + (x / IC50) ^ (-Hillslope)), wherein: y is percentage inhibition rate; Max and Min are the maximum and minimum values of the fitted curve, respectively; x is the logarithmic concentration of compound; and Hillslope is the slope of the curve.

[3] = target: T2, hERG (Homo sapiens, UniProt Q12809); assay: Biochemical hERG inhibition test, Predictor hERG fluorescence polarization kit; format: binding; settings: hERG cell membrane, competition with Tracer 1 nM, 10 µM and 1 µM test compound, 2 h
T2 construct: purchased ThermoFisher
Experimental: Test Example 4: Biochemical hERG inhibition test
• 1. Test system: Kit: Predictor™ hERG fluorescence polarization detection kit (ThermoFisher), the kit contained the following components: positive control compound hERG potassium channel blocker E4031; hERG cell membrane; affinity tracer Tracer; and hERG buffer. • 2. Test parameters: hERG concentration: 1×; Tracer concentration: 1 nM; incubation time: 2 h; BMG PHERAstar FSFP. • 3.
Positive control group: 30 µM positive control compound E4031 was used to replace the test compound, and the experimental method was the same as that of the test group.
Blank control group: hERG buffer was used to replace the test compound without the addition of hERG cell membrane, and the experimental method was the same as that of the test group.
According to the data ratio, the percent inhibition rates (%) of the compounds of the present invention to hERG at different concentrations were calculated, and the ranges of the half inhibitory concentration (IC50) of the compounds were determined.

[4] = target: T3, CYP1A2 (Homo sapiens, UniProt P05177); assay: CYP enzyme inhibition test, P450-Glo CYP1A2 Screening System; format: in vitro ADME
T3 construct: purchased Promega
T3 sequence (P05177 1-516): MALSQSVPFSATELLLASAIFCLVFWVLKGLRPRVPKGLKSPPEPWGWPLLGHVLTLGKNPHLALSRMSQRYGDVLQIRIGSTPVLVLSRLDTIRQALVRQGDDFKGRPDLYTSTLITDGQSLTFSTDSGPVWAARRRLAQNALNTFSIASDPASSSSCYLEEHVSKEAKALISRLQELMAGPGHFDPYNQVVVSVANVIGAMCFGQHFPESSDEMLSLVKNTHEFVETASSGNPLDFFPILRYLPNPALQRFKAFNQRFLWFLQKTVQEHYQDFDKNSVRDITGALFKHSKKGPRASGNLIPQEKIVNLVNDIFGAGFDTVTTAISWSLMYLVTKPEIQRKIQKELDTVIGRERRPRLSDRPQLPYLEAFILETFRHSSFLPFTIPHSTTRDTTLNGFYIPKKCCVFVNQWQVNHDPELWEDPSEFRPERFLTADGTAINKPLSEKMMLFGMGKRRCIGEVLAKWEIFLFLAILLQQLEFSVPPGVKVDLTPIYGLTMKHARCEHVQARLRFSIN
Experimental: Test Example 5: CYP enzyme (Cytocrome P450) inhibition test […] Test system: • P450-Glo™ CYP1A2 Screening System (Promega); • P450-Glo™ CYP2D6 Screening System (Promega); • P450-Glo™ CYP3A4 Screening System (Promega). • 2. Test instrument: BMG PHERAstar FS Luminescent. • 3. Test method: The test was carried out according to the kit instructions, and the steps were as follows: 3.1. Inhibition of CYP1A2: Test group: […] Negative control group: The experimental method was the same as that of the test group, but the test compound was not added. Blank control group: […] The median inhibitory concentration (IC50) or range of the compound was estimated according to the inhibition rate of CYP enzymes at different concentrations: […]

[5] = Luciferin-ME 100 µM, read-out: IC50 (µM) CYP1A2

T2 sequence (Q12809 whole entry): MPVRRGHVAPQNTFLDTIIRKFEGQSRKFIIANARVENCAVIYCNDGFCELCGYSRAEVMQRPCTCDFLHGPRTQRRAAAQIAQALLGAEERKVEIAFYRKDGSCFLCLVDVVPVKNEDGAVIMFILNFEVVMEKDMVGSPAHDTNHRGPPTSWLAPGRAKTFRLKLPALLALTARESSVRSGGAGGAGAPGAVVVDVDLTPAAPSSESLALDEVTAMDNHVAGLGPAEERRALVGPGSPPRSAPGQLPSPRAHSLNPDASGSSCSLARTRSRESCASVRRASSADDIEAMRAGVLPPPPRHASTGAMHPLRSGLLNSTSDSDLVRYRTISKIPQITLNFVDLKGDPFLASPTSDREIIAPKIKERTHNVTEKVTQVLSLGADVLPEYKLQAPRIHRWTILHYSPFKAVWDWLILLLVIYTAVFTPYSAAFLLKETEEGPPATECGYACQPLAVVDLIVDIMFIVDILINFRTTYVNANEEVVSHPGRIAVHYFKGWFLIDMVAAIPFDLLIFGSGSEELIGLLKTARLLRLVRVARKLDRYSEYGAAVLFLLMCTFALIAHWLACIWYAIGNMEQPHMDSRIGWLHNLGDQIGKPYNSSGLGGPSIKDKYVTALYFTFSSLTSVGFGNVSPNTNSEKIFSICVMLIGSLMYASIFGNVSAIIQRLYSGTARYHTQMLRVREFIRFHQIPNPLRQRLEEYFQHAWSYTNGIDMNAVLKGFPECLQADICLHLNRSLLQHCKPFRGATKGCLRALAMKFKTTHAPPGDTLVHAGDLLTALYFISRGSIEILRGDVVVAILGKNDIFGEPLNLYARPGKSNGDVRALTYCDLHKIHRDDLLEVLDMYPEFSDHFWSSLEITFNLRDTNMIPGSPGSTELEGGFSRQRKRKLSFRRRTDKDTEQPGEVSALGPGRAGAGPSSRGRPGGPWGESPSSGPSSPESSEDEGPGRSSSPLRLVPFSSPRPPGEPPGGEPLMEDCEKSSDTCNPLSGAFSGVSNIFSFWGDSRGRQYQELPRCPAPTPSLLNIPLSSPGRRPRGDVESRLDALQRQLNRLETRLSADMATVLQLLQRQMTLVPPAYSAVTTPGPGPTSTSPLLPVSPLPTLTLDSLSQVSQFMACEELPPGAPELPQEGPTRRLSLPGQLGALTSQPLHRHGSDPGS

| IC50 [4, 5] [µM] | Structure (SMILES) | IC50 [1] [nM] | IC50 [2] [nM] | IC50 [3] [nM] | IC50 [4] [µM] | IC50 ([4]; Luciferin-ME 100 µM, 30 min, read-out: IC50 (µM) CYP1A2) [µM] |
| --- | --- | --- | --- | --- | --- | --- |
| > 10 | Cc1cccc(-n2nc(NCc3ccc(F)cc3)cc2-c2ccn3ncc(C(N)=O)c3c2)n1 [Example 11, 5-(3-(4-fluorobenzylamino)-1-(6-methylpyridin-2-yl)-1H-pyrazol-5-yl)pyrazolo[1,5-a]pyridine-3-carboxamide] | 0.5 ± 0.21 | 19.4 ± 1.52 | > 10000 |  |  |
| > 10 | Cc1cccc(-n2nccc2-c2ccn3ncc(C(N)=O)c3c2)n1 [Example 12, 5-(1-(6-methylpyridin-2-yl)-1H-pyrazol-5-yl)pyrazolo[1,5-a]pyridine-3-carboxamide] | 9.39 ± 2.15 | 26.6 ± 5.43 | > 10000 |  |  |

The next lines start with the molecule.

| Structure (SMILES) | IC50 [4, 5] [µM] | IC50 [1] [nM] | IC50 [2] [nM] | IC50 [3] [nM] | IC50 [4] [µM] | IC50 ([4]; Luciferin-ME 100 µM, 30 min, read-out: IC50 (µM) CYP1A2) [µM] |
| --- | --- | --- | --- | --- | --- | --- |
| Cc1cccc(-n2nc3c(c2-c2ccn4nccc4c2)CCC3)n1 [Example 4, 5-[2-(6-methylpyridin-2-yl)-2,4,5,6-tetrahydrocyclopenteno [c]pyrazol-3-yl]pyrazolo[1,5-a]pyridine] |  | 12 ± 5.4 | 35 ± 2.69 | > 10000 | > 10 |  |
| Cc1cccc(-n2nc3c(c2-c2ccn4ncc(C(N)=O)c4c2)CCC3)n1 [Example 6, 5-[2-(6-methylpyridin-2-yl)-2,4,5,6-tetrahydrocyclopenteno[c]pyrazol-3-yl]pyrazolo[1,5-a]pyridine-3-carboxamide] |  | 2.36 ± 0.68 | 20.1 ± 1 | > 10000 |  | > 10 |
| CNc1cc(-c2ccn3ncc(C(N)=O)c3c2)n(-c2cccc(C)n2)n1 [Example 8, 5-(3-(methylamino)-1-(6-methylpyridin-2-yl)-1H-pyrazol-5-yl)pyrazolo[1,5-a]pyridine-3-carboxamide] | > 10 | 8.27 ± 0.11 | 29.9 ± 1.27 | > 10000 |  |  |
| Cc1cccc(-n2nc(NC(C)c3ccc(F)cc3)cc2-c2ccn3ncc(C(N)=O)c3c2)n1 (stereo not drawn) [Example 10, 5-(3-(1-(4-fluorophenyl)ethylamino)-1-(6-methylpyridin-2-yl)-1H-pyrazol-5-yl)pyridino[1,5-a]pyridine-3-carboxamide] |  | 4.82 ± 0.51 | 43.1 ± 4.19 | > 10000 | > 10 |  |
